Laboratory results: publication PMC9428674 (RSC Chemical Biology, 2022)

Tests used:
[1] = cited from earlier work
NTAQ1 = test: Western blot verification of NTAQ1 degradation; details: 100 nM MLN4924 pre-treatment for 2 hours

## Nc1cccc2c1CN(C1CCC(=O)NC1=O)C2=O (stereo not shown) [lenalidomide]
[1]
  human plasma half-life: 4.73 h

## O=C1CCC(N2C(=O)c3ccccc3C2=O)C(=O)N1 (stereo not shown) [thalidomide]
[1]
  human plasma half-life: 0.367 h

## Nc1cccc2c1C(=O)N(C1CCC(=O)NC1=O)C2=O (stereo not shown) [pomalidomide]
[1]
  human plasma half-life: 2.65 h

## NS(=O)(=O)OC[C@@H]1C[C@@H](n2ccc3c(N[C@H]4CCc5ccccc54)ncnc32)C[C@@H]1O [MLN4924]
NTAQ1
  effect of pre-treatment on NTAQ1 downregulation by EM12-FS: rescued downregulation of NTAQ1 by EM12-FS
